Tests used:
[1] = target: T1, 11β-HSD1 (Homo sapiens, UniProt P28845); test: Determination of 11β-HSD1 inhibition in HEK293 cells stably transfected with the 11β-HSD1 gene (cortisone to cortisol, LC/MS); format: cell-based; parameters: expressed in transfected cells; host or cells: HEK293 cells, stably transfected; details: 10 µM compound, 300 nM cortisone, 2 hours, read-out: HSD1 % inh in cells (10 µM)
Experimental: 11β-HSD1 activity was determined in cells that are incubated with substrate (cortisone) and product (cortisol) is determined by LC/MS. Cells are plated at 2 x 10^4 cells/well in a 96-well tissue culture microplate and incubated overnight at […] in 5% CO2 95% O2. Compounds to be tested are solubilized in 100% DMSO at 10 mM and serially diluted in water and 10% DMSO to final concentration 100 µM in 10% DMSO. 10 µl of each test dilution is dispensed into the well of a 96-well microplate (assay concentration of 10 µM). Low and high control wells contain 10 µl of 10% DMSO. A solution of DMEM is prepared containing 1% penicillin, 1% streptomycin and 300 nM cortisone. Medium is removed from cell assay plate and DMEM solution (100 µl) added to each well. Cells are incubated for 2 hours […] in 5% CO2 95% O2. Following incubation medium is removed from each well into 500 µl ethyl acetate mixed by vortex and incubated at room temperature for 5 minutes. A calibration curve of known concentrations of cortisol in assay medium is also set up and added to 500 µl ethyl acetate vortexed and incubated as above. The supernatant is removed to a 96 deep well plate and dried down under liquid nitrogen at 65°C. Each well is solubilised in 100 µl 70:30 H2O:ACN and removed to a 96 well v bottomed plate for LC/MS analysis.

[2] = target: T2, 11β-HSD2 (Homo sapiens, UniProt P80365); test: Determination of 11β-HSD2 inhibition in HEK293 cells stably transfected with the 11β-HSD2 gene (cortisol to cortisone, LC/MS); format: cell-based; details: assay concentrations of 10, 1, 0.1 µM, 2 hours
T2 construct: expressed in transfected cells; host or cells: HEK293 cells, stably transfected
T2 sequence (P80365 1-405): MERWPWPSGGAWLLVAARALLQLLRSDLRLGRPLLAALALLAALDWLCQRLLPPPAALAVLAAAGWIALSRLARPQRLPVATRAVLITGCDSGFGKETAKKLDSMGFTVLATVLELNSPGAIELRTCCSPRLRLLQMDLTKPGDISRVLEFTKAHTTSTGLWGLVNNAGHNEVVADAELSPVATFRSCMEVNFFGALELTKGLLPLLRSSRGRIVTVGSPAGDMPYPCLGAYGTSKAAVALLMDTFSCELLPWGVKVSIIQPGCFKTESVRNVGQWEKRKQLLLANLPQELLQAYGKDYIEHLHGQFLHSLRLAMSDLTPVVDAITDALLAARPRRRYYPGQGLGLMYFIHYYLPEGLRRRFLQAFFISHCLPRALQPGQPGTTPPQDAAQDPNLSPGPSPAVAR
Experimental: 11β-HSD2 activity was determined in cells that are incubated with substrate (cortisol) and product (cortisone) is determined by LC/MS. Cells are plated at 2 x 10^4 cells/well in a 96-well tissue culture microplate and incubated overnight at @37° C in 5% CO2 95% O2. Compounds to be tested are solubilized in 100% DMSO at 10 mM and serially diluted in water and 10% DMSO to final concentration in 10% DMSO. 10 µl of each test dilution is dispensed into the well of a 96-well microplate (assay concentrations of 10, 1, 0.1 µM). Low and high control wells contain 10 µl of 10% DMSO. A solution of DMEM is prepared containing 1% penicillin, 1% streptomycin and 300 nM […]. Medium is removed from cell assay plate and DMEM solution (100 µl) added to each well. Cells are incubated for 2 hours @37° C in 5% CO2 95% O2. Following incubation medium is removed from each well into 500 µl ethyl acetate mixed by vortex and incubated at room temperature for 5 minutes. A calibration curve of known concentrations of cortisone in assay medium is also set up and added to 500 µl ethyl acetate vortexed and incubated as above. The supernatant is removed to a 96 deep well plate and dried down under liquid nitrogen at 65°C. Each well is solubilised in 100 µl 70:30 H2O:AC and removed to a 96 well v bottomed plate for LC/MS analysis.

[3] = target: T1, 11β-HSD1; test: Determination of the 11β-HSD1 inhibition in Human Liver Microsomes (3H-cortisone to 3H-cortisol conversion, scintillation proximity assay); format: biochemical; parameters: tissue Celsis In-vitro Technologies; host or cells: mixed sex human liver microsomes; details: mixed sex, 1 mM NADPH, 37°C, 30 minutes, read-out: HSD1 IC50 in HLM
Experimental: 11β-HSD1 activity was determined in mixed sex, Human Liver Microsomes (Celsis In-vitro Technologies) by measuring the conversion of ^3H-cortisone to ^3H-cortisol. Percentage inhibition was determined relative to a no inhibitor control. 5 µg of Human Liver microsomes was pre-incubated at 37°C for 10 minutes with inhibitor (assay concentrations of 1, 0.5, 0.1, 0.05, 0.01, 0.005, 0.001 and 0.0005 µM) and 1 mM NADPH in a final volume of 90 µL Krebs buffer. 10 µL of 200 nM ^3H-cortisone was then added followed by incubation for at 37°C for a further 30 minutes. The assay was terminated by rapid freezing on dry ice. ^3H-cortisone to ^3H-cortisol conversion was determined in 50 µL of the defrosted reaction by capturing liberated ^3H-cortisol on 100 µL 1:8000 dilution anti-cortisol (HyTest Ltd)-coated scintillation proximity assay beads (protein A-coated YSi, GE Healthcare). The percentages of inhibition at every tested concentration were analyzed using a non-linear regression curve fitting (variable slope) by using the software GraphPad Prism 5.0.

T1 sequence (P28845 whole entry): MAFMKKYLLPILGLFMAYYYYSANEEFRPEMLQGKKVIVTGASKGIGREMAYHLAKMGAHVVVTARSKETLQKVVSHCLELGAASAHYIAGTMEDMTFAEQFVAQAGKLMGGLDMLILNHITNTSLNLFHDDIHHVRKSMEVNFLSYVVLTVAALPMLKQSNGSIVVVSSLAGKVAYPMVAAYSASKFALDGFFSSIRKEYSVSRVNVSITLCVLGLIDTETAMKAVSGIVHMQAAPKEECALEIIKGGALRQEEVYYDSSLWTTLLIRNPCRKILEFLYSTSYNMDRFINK

Row | Compound | inhibition at 10 µM [1] [%] | IC50 [2] [nM] | IC50 [3] [nM]
1 | O=C(C1CCCCC1)N1CC2[C@@H](C1)[C@H]1C=C[C@@H]2[C@@H]2C[C@H]12 (stereo partly drawn) [Example 1, cyclohexyl((4R,4aR,5aS,6S,6aS)-3,3a,4,4a,5,5a,6,6a-octahydro-4,6-etheno-cyclopropa[f]isoindol-2(1H)-yl)methanone] | 100 | ≥ 1000 | < 50
2 | CC(C)(C)C(=O)N1CC2[C@@H](C1)[C@H]1C=C[C@@H]2[C@@H]2C[C@H]12 (stereo partly drawn) [Example 7, 2,2-dimethyl-1-((4R,4aR,5aS,6S,6aS)-3,3a,4,4a,5,5a,6,6a-octahydro-4,6-ethenocyclopropa[f]isoindol-2(1H)-yl)propan-1-one] | 85 | ≥ 1000 | 500 to 1000
3 | O=C(C1CC=CCC1)N1CC2[C@@H](C1)[C@H]1C=C[C@@H]2[C@@H]2C[C@H]12 (stereo partly drawn) [Example 10, cyclohex-3-en-1-yl((4R,4aR,5aS,6S,6aS)-3,3a,4,4a,5,5a,6,6a-octahydro-4,6-ethenocyclopropa[f]isoindol-2(1H)-yl)methanone] | 41 | 100 to 1000 | < 50
4 | N#Cc1ccc(N2CCN(c3ccc(C(=O)N4CC5[C@@H](C4)[C@H]4C=C[C@@H]5[C@@H]5C[C@H]45)cn3)CC2)cc1 (stereo partly drawn) [Example 15, 4-(4-(5-((4R,4aR,5aS,6S,6aS)-1,2,3,3a,4,4a,5,5a,6,6a-decahydro-4,6-ethenocyclopropa[f]isoindole-2-carbonyl)pyridin-2-yl)piperazin-1-yl)benzonitrile] | 100 | ≥ 1000 | 50 to 500

More lines, now with the values ahead:

Row | inhibition at 10 µM [1] [%] | IC50 [2] [nM] | IC50 [3] [nM] | Compound
5 | 100 | < 100 | < 50 | O=C(C1CCCCC1)N1CC2C3CCC(C4CC34)C2C1 [Example 2, cyclohexyl((4R,4aR,5aS,6S,6aS)-octahydro-4,6-ethanocyclopropa[f]iso-indol-2(1H)-yl)methanone]
6 | 77 | 100 to 1000 | < 50 | Nc1c(Cl)cc(C(=O)N2CC3[C@@H](C2)[C@H]2C=C[C@@H]3[C@@H]3C[C@H]23)cc1Cl (stereo partly drawn) [Example 9, (4-amino-3,5-dichlorophenyl)((4R,4aR,5aS,6S,6aS)-3,3a,4,4a,5,5a,6,6a-octahydro-4,6-ethenocyclopropa[f]isoindol-2(1H)-yl)methanone]

Reference: patent publication EP3235813A1, “AZA-TETRA-CYCLO DERIVATIVES” (CIDQO 2012, S.L., priority 2016, dated 2017)
